Data: ChEMBL document CHEMBL4765295, “Synthesis, pharmacological profile and 2D-QSAR studies of curcumin-amino acid conjugates as potential drug candidates” (Eur J Med Chem, 2020)
Values joined by “and” are separate entries in the source; they are usually repeats but may differ in a detail not shown here. Equal entries are not always repeated.

System: Rattus norvegicus
Assay: Antiinflammatory activity in Wistar rat model of carrageenan-induced paw edema assessed as reduction in thickness of paw edema at 10 mg/kg, ip pretreated for 1 hr followed by carrageenan challenge and measured after 1 hr (reference value: 2.41 +/-0.05 mm)
Type: functional
Details: time 1 hr after carrageenan

**Q.** For `COc1cc(/C=C/C(=O)/C=C(O)/C=C/c2ccc(OC(=O)[C@@H](N)CCSC)c(OC)c2)ccc1OC(=O)[C@@H](N)CCSC.Cl.Cl`, which Activity is on record?
**A.** 0.86 mm

System: Rattus norvegicus
Assay: Anti-inflammatory activity in Wistar rat assessed as inhibition of carrageenan-induced paw edema at 10 mg/kg, ip pretreated for 1 hr followed by carrageenan challenge and measured after 1 hr relative to control (reference value: 0.00 +/-0.02 %)
Type: functional
Details: time 2 hrs

**Q.** Which inhibition in vivo at 10 mg/kg does the source give for `COc1cc(/C=C/C(=O)/C=C(O)/C=C/c2ccc(OC(=O)[C@@H](N)CCSC)c(OC)c2)ccc1OC(=O)[C@@H](N)CCSC.Cl.Cl` here?
**A.** 64%

System: Mus musculus
Assay: Analgesic activity in albino mouse assessed as protection at 10 mg/kg, ip measured after 120 mins by hot plate test relative to indomethacin
Type: functional
Details: 2 h

**Q.** With `COc1cc(/C=C/C(=O)/C=C(O)/C=C/c2ccc(OC(=O)[C@@H](N)CCSC)c(OC)c2)ccc1OC(=O)[C@@H](N)CCSC.Cl.Cl` as the molecule, how does the Activity read?
**A.** 151%

System: Mus musculus
Assay: Analgesic activity in albino mouse assessed as protection at 10 mg/kg, ip measured after 30 mins by hot plate test (reference value: 0 %)
Type: functional
Details: 0.5 h

**Q.** With `COc1cc(/C=C/C(=O)/C=C(O)/C=C/c2ccc(OC(=O)[C@@H](N)CCSC)c(OC)c2)ccc1OC(=O)[C@@H](N)CCSC.Cl.Cl` as the molecule, how does the Activity read?
**A.** 5.2%

System: Mus musculus
Assay: Analgesic activity in albino mouse assessed as forepaw licking/jumping latency time at 10 mg/kg, ip measured after 60 mins by hot plate test (reference value: 3.42 +/- 0.03 sec)
Type: functional
Details: 1 h

**Q.** With `COc1cc(/C=C/C(=O)/C=C(O)/C=C/c2ccc(OC(=O)[C@@H](N)CCSC)c(OC)c2)ccc1OC(=O)[C@@H](N)CCSC.Cl.Cl` as the molecule, how does the Time read?
**A.** 5.02 s

System: Mus musculus
Assay: Analgesic activity in albino mouse assessed as protection at 10 mg/kg, ip measured after 120 mins by hot plate test (reference value: 0 %)
Type: functional
Details: 2 h

**Q.** For `COc1cc(/C=C/C(=O)/C=C(O)/C=C/c2ccc(OC(=O)[C@@H](N)CCSC)c(OC)c2)ccc1OC(=O)[C@@H](N)CCSC.Cl.Cl`, which Activity is on record?
**A.** 63.4%

System: Peritoneal macrophage
Assay: Antiinflammatory activity in […] mouse Peritoneal macrophages assessed as inhibition of LPS-induced NO production at 10 uM preincubated for 1 hr followed by LPS stimulation measured after 24 hrs by Griess method relative to control (reference value: 0.0 %)
Type: functional
Parameters: scale not given: the % may be the effect or the level left
Details: time 25 hrs

**Q.** Which Activity does the source give for `COc1cc(/C=C/C(=O)/C=C(O)/C=C/c2ccc(OC(=O)[C@@H](N)CCSC)c(OC)c2)ccc1OC(=O)[C@@H](N)CCSC.Cl.Cl` here?
**A.** 37.94%

System: Mus musculus
Assay: Analgesic activity in albino mouse assessed as forepaw licking/jumping latency time at 10 mg/kg, ip measured after 120 mins by hot plate test (reference value: 2.62 +/- 0.06 sec)
Type: functional
Details: 2 h

**Q.** For `COc1cc(/C=C/C(=O)/C=C(O)/C=C/c2ccc(OC(=O)[C@@H](N)CCSC)c(OC)c2)ccc1OC(=O)[C@@H](N)CCSC.Cl.Cl`, which Time is on record?
**A.** 4.28 s

System: not listed separately
Assay: Ulcerogenic activity in fasted albino mouse assessed as average number of ulcers in gastric mucosa at 10 mg/kg, po for 3 days (reference value: 0)
Type: toxicity, organism-based
Details: in vivo, 72 h, time 3 day

**Q.** With `COc1cc(/C=C/C(=O)/C=C(O)/C=C/c2ccc(OC(=O)[C@@H](N)CCSC)c(OC)c2)ccc1OC(=O)[C@@H](N)CCSC.Cl.Cl` as the molecule, how does the Activity read?
**A.** 0

System: Peritoneal macrophage
Assay: Antiinflammatory activity in […] mouse Peritoneal macrophages assessed as reduction in LPS-induced NO production by measuring reduction in stimulation index at 10 uM preincubated for 1 hr followed by LPS stimulation measured after 24 hrs by Griess method (reference value: 27.31 +/- 2.56 uM)
Type: functional
Details: time 25 hrs

**Q.** With `COc1cc(/C=C/C(=O)/C=C(O)/C=C/c2ccc(OC(=O)[C@@H](N)CCSC)c(OC)c2)ccc1OC(=O)[C@@H](N)CCSC.Cl.Cl` as the molecule, how does the Activity read?
**A.** 16.95 µM

System: Rattus norvegicus
Assay: Anti-inflammatory activity in Wistar rat assessed as inhibition of carrageenan-induced paw edema at 10 mg/kg, ip pretreated for 1 hr followed by carrageenan challenge and measured after 3 hr relative to control (reference value: 0.00 +/-0.1 %)
Type: functional
Details: time 4 hrs

**Q.** For `COc1cc(/C=C/C(=O)/C=C(O)/C=C/c2ccc(OC(=O)[C@@H](N)CCSC)c(OC)c2)ccc1OC(=O)[C@@H](N)CCSC.Cl.Cl`, which inhibition in vivo at 10 mg/kg is on record?
**A.** 73%

System: Splenocyte
Assay: Immunomodulatory activity in Swiss albino mouse splenocytes assessed as cell viability at 10 uM by measuring inhibition of stimulation index incubated for 72 hrs in presence of mitogenic stimulus phytohaemagglutinin by MTT assay relative to indomethacin
Type: functional
Details: read-out: Activity

**Q.** Which viability at 10 µM does the source give for `COc1cc(/C=C/C(=O)/C=C(O)/C=C/c2ccc(OC(=O)[C@@H](N)CCSC)c(OC)c2)ccc1OC(=O)[C@@H](N)CCSC.Cl.Cl` here?
**A.** 81.3%

System: not listed separately
Assay: Ulcerogenic activity in fasted albino mouse assessed as ulcer index in gastric mucosa at 10 mg/kg, po for 3 days (reference value: 0)
Type: toxicity, organism-based
Details: in vivo, 72 h, time 3 day

**Q.** For `COc1cc(/C=C/C(=O)/C=C(O)/C=C/c2ccc(OC(=O)[C@@H](N)CCSC)c(OC)c2)ccc1OC(=O)[C@@H](N)CCSC.Cl.Cl`, which UI is on record?
**A.** 0

System: Rattus norvegicus
Assay: Anti-inflammatory activity in Wistar rat assessed as inhibition of carrageenan-induced paw edema at 10 mg/kg, ip pretreated for 1 hr followed by carrageenan challenge and measured after 4 hr relative to indomethacin
Type: functional
Details: time 5 hrs

**Q.** With `COc1cc(/C=C/C(=O)/C=C(O)/C=C/c2ccc(OC(=O)[C@@H](N)CCSC)c(OC)c2)ccc1OC(=O)[C@@H](N)CCSC.Cl.Cl` as the molecule, how does the inhibition in vivo at 10 mg/kg read?
**A.** 111%

System: Pseudomonas aeruginosa
Assay: Antibacterial activity against Pseudomonas aeruginosa ATCC 27853 incubated for 18 hrs by agar dilution assay
Type: functional
Details: not given

**Q.** With `COc1cc(/C=C/C(=O)/C=C(O)/C=C/c2ccc(OC(=O)[C@@H](N)CCSC)c(OC)c2)ccc1OC(=O)[C@@H](N)CCSC.Cl.Cl` as the molecule, how does the MIC read?
**A.** 0.5 µg/mL and 0.711 µM

System: not listed separately
Assay: Ulcerogenic activity in fasted albino mouse assessed as incidence of gastric ulceration at 10 mg/kg, po for 3 days (reference value: 0 %)
Type: toxicity, organism-based
Details: in vivo, 72 h, time 3 day

**Q.** With `COc1cc(/C=C/C(=O)/C=C(O)/C=C/c2ccc(OC(=O)[C@@H](N)CCSC)c(OC)c2)ccc1OC(=O)[C@@H](N)CCSC.Cl.Cl` as the molecule, how does the Activity read?
**A.** 0%

System: not listed separately
Assay: Toxicity in albino mouse assessed as induction of toxic symptoms at 50 to 100 mg/kg, ip measured after 24 hrs
Type: organism-based
Details: in vivo, dose 50-100 mg/kg

**Q.** For `COc1cc(/C=C/C(=O)/C=C(O)/C=C/c2ccc(OC(=O)[C@@H](N)CCSC)c(OC)c2)ccc1OC(=O)[C@@H](N)CCSC.Cl.Cl`, which Activity is on record?
**A.** Non-Toxic

System: Candida albicans
Assay: Antifungal activity against Candida albicans incubated for 18 to 24 hrs by CLSI method
Type: functional
Details: time 18-24 hrs

**Q.** Which MIC does the source give for `COc1cc(/C=C/C(=O)/C=C(O)/C=C/c2ccc(OC(=O)[C@@H](N)CCSC)c(OC)c2)ccc1OC(=O)[C@@H](N)CCSC.Cl.Cl` here?
**A.** 0.5 µg/mL and 0.711 µM

System: Mus musculus
Assay: Analgesic activity in albino mouse assessed as protection at 10 mg/kg, ip measured after 60 mins by hot plate test (reference value: 0 %)
Type: functional
Details: 1 h

**Q.** With `COc1cc(/C=C/C(=O)/C=C(O)/C=C/c2ccc(OC(=O)[C@@H](N)CCSC)c(OC)c2)ccc1OC(=O)[C@@H](N)CCSC.Cl.Cl` as the molecule, how does the Activity read?
**A.** 46.8%

System: Rattus norvegicus
Assay: Antiinflammatory activity in Wistar rat model of carrageenan-induced paw edema assessed as reduction in thickness of paw edema at 10 mg/kg, ip pretreated for 1 hr followed by carrageenan challenge and measured after 3 hrs (reference value: 1.79 +/-0.07 mm)
Type: functional
Details: time 4 hrs

**Q.** With `COc1cc(/C=C/C(=O)/C=C(O)/C=C/c2ccc(OC(=O)[C@@H](N)CCSC)c(OC)c2)ccc1OC(=O)[C@@H](N)CCSC.Cl.Cl` as the molecule, how does the Activity read?
**A.** 0.49 mm
